{"source": "patent US4065575A", "about": "“3-Aminomethyl derivatives of 4-chromanone” (Joullie International, priority 1975, dated 1977)", "key": {"[1]": {"test": "Cardiovascular action in dogs", "assay_type": "in vivo, male Beagle dogs", "procedure": "Male Beagle dogs weighing 9 to 12 kg. were anaesthetised by intrasaphenous injection of a 2% solution of chloralose in physiological solution, at a dose of 100 mg./kg.\nThe anaesthesia is maintained by slow perfusion of 5% pentobarbital (1.2 ml./hour).\nThe animals are tracheotomised and placed under assisted respiration by means of a Bird respirator. Their oxygenation and their acid-base equilibrium are controlled by determination of the pH, the pCO2 and the pO2 on blood samples taken from a collateral of the brachial artery (pH/gas analyser for blood, IL model 213/227).\nThe different parameters are recorded on a polygraph."}, "[2]": {"test": "Acute toxicity in mice (LD 50)", "assay_type": "in vivo", "conditions": "mouse, in vivo, mice, 15 days observation", "procedure": "(§1) The study is carried out on batches of 5 Swiss female mice of the NMRI Han. strain. The products are administered either intravenously (into the caudal vein) in solution in a 9 g..permill. sodium chloride solution, or orally (probang) in suspension in a 10% solution of gum arabic.\n(§2) The animals are observed for the 15 days following the administration of the products.\n(§3) The LD 50 values are calculated by the method of Karber and Behrens (Arch. Exp. Pathol. Pharm. 177, 1935, page 379)."}, "[3]": {"test_system": "isolated auricle of a rabbit", "test": "Peripheral vasomotoricity, isolated and perfused auricle of a rabbit", "conditions": "for activation at 0.0001 mg / activation at 0.001 mg / activation at 0.01 mg / activation at 0.1 mg: Oryctolagus cuniculus, read-out: Maximum variations in the flow rate; for activation at 0.0001 mg: dose 0.1 μg.; for activation at 0.001 mg: dose 1 μg.; for activation at 0.01 mg: dose 10 μg.; for activation at 0.1 mg: dose 100 μg.; for duration of the effects / of the action: at the highest doses; for peripheral vasodilatory action: in words", "procedure": "The flow rate of the liquid issuing from the veins is recorded by electronic contact on a polygraph. The products to be studied are injected at increasing doses into the perfusion tube and their actions are compared to that of isoxsuprine used as the reference substance.\nThe results, collected in Table No. III, are expressed in the maximum percentage increase of the flow rate at the various doses used."}, "[4]": {"test_system": "hypertensive effects of electrical stimulation, adrenaline and noradrenaline", "test": "α-Sympatholytic effects in amyeliated rats", "assay_type": "in vivo", "conditions": "for % variation of the hypertensive effects obtained with adrenaline: adrenaline 1.25 to 2.5 μg./kg.; for % variation of the hypertensive effects obtained with noradrenaline: noradrenaline 1.25 to 2.5 μg./kg.", "from_the_text": "The α-sympatholytic effects of LJ 1052 and LJ 1053 are compared with those of isoxsuprine in amyeliated rats which have been prepared by a method derived from those of Shipley and Tilden (Proc. soc. Exp. Biol. Med. 1947, 64, 453-455) and of Gillespie and Muir (Br. J. Pharmac. Chemother. 1967, 30, 78-87).\nThe effects on the blood pressure of electrical stimulation of the thoracolumbar sympathic nerve (rectangular signals = voltage 20 to 40 volts; width 2 m. sec; frequency 10 secs.; duration 5 to 10 secs.) and of injections of adrenaline (1.25 to 2.5 μg./kg.) and of noradrenaline (1.25 to 2.5 μg./kg.) are determined before and after injection of the products tested."}, "[5]": {"test_system": "mice", "test": "Acute toxicity in mice (LD 50)", "assay_type": "in vivo", "conditions": "intravenous; in words", "procedure": "as §1, §2, §3"}, "[6]": {"conditions": "0.5 mg./kg. i.v. (1/50 LD 50), then"}, "[7]": {"conditions": "0.6 mg./kg. i.v. (1/50 LD 50), first phase"}, "[8]": {"conditions": "0.6 mg./kg. i.v. (1/50 LD 50), then"}, "[9]": {"conditions": "dose 50 g./kg. (so in the source)"}, "[10]": {"conditions": "dose 100 g./kg. (so in the source)"}, "[11]": {"conditions": "0.04 mg./kg. i.v. (1/1,000 LD 50)"}, "[12]": {"conditions": "0.04 mg./kg. i.v. (1/1,000 LD 50), first or only phase"}, "[13]": {"conditions": "0.04 mg./kg. i.v. (1/1,000 LD 50), then"}}, "note": "Entries after “also recorded” stand apart in the source; their conditions may differ. Structures can show the parent of a compound that is named as a salt."}
{"smiles": "CCCCNCC1COc2ccccc2C1=O", "note": "(stereo not drawn) [LJ 1049, 3-(n-Butylaminomethyl)-4-chromanone hydrochloride]", "values": [{"measurement": "FF (mean flow rate of the femoral artery), maximum per cent variation", "setting": "[1]; 0.5 mg./kg. i.v. (1/50 LD 50)", "result": "+34%"}, {"measurement": "FF, duration of action", "setting": "[1]; 0.5 mg./kg. i.v. (1/50 LD 50)", "result": 2, "unit": "min"}, {"measurement": "Hb (heart beat), maximum per cent variation", "setting": "[1]; 0.5 mg./kg. i.v. (1/50 LD 50)", "result": "+21%"}, {"measurement": "Hb, duration of action", "setting": "[1]; 0.5 mg./kg. i.v. (1/50 LD 50)", "result": 40, "unit": "min"}, {"measurement": "LVP (left ventricular pressure), maximum per cent variation", "setting": "[1]; 0.5 mg./kg. i.v. (1/50 LD 50)", "result": -19, "unit": "%"}, {"measurement": "LVP, duration of action", "setting": "[1]; 0.5 mg./kg. i.v. (1/50 LD 50)", "result": 50, "unit": "min"}, {"measurement": "Mean AP, duration of action", "setting": "[1]; 0.5 mg./kg. i.v. (1/50 LD 50)", "result": 10, "unit": "min"}, {"measurement": "Mean AP, maximum per cent variation", "setting": "[1]; 0.5 mg./kg. i.v. (1/50 LD 50)", "result": -15, "unit": "%"}, {"measurement": "dLVP/dt, maximum per cent variation", "setting": "[1]; 0.5 mg./kg. i.v. (1/50 LD 50), first phase", "result": -10, "unit": "%"}, {"measurement": "dLVP/dt, duration of action, second phase (\"then\")", "setting": "[1]; [6]", "result": 10, "unit": "min"}, {"measurement": "dLVP/dt, maximum per cent variation, second phase (\"then\")", "setting": "[1]; [6]", "result": "+20%"}, {"measurement": "LD50 at 360 h", "setting": "[2]; intravenous administration", "result": 24, "unit": "mg/kg"}, {"measurement": "LD50 at 360 h", "setting": "[2]; oral administration", "result": 262, "unit": "mg/kg"}, {"measurement": "activation at 0.0001 mg", "setting": "[3]", "result": 36, "unit": "%"}, {"measurement": "activation at 0.001 mg", "setting": "[3]", "result": 36, "unit": "%"}, {"measurement": "activation at 0.01 mg", "setting": "[3]", "result": 115, "unit": "%"}, {"measurement": "activation at 0.1 mg", "setting": "[3]", "result": 138, "unit": "%"}, {"measurement": "duration of the effects / of the action", "setting": "[3]", "result": "≥ 30", "unit": "min"}, {"measurement": "peripheral vasodilatory action", "setting": "[3]", "result": "great"}]}
{"smiles": "COCCCNCC1COc2ccccc2C1=O", "note": "(stereo not drawn) [LJ 1051, 3-(3-Methoxy-n-propylaminomethyl)-4-chromanone hydrochloride]", "values": [{"measurement": "LVP (left ventricular pressure), maximum per cent variation", "setting": "[1]; 0.6 mg./kg. i.v. (1/50 LD 50)", "result": -30, "unit": "%"}, {"measurement": "LVP, duration of action", "setting": "[1]; 0.6 mg./kg. i.v. (1/50 LD 50)", "result": "> 50", "unit": "min"}, {"measurement": "Mean AP, duration of action", "setting": "[1]; 0.6 mg./kg. i.v. (1/50 LD 50)", "result": "> 50", "unit": "min"}, {"measurement": "Mean AP, maximum per cent variation", "setting": "[1]; 0.6 mg./kg. i.v. (1/50 LD 50)", "result": -21, "unit": "%"}, {"measurement": "dLVP/dt, duration of action", "setting": "[1]; 0.6 mg./kg. i.v. (1/50 LD 50)", "result": "> 50", "unit": "min"}, {"measurement": "dLVP/dt, maximum per cent variation", "setting": "[1]; 0.6 mg./kg. i.v. (1/50 LD 50)", "result": -60, "unit": "%"}, {"measurement": "Hb (heart beat), maximum per cent variation", "setting": "[1]; [7]", "result": "+20%"}, {"measurement": "Hb, duration of action", "setting": "[1]; [7]", "result": 3, "unit": "min"}, {"measurement": "Hb, duration of action, second phase (\"then\")", "setting": "[1]; [8]", "result": 40, "unit": "min"}, {"measurement": "Hb, maximum per cent variation, second phase (\"then\")", "setting": "[1]; [8]", "result": -16, "unit": "%"}, {"measurement": "LD50 at 360 h", "setting": "[2]; intravenous administration", "result": 33, "unit": "mg/kg"}, {"measurement": "LD50 at 360 h", "setting": "[2]; oral administration", "result": 475, "unit": "mg/kg"}, {"measurement": "activation at 0.0001 mg", "setting": "[3]", "result": 0, "unit": "%"}, {"measurement": "activation at 0.001 mg", "setting": "[3]", "result": 36, "unit": "%"}, {"measurement": "activation at 0.01 mg", "setting": "[3]", "result": 100, "unit": "%"}, {"measurement": "duration of the effects / of the action", "setting": "[3]", "result": "≥ 30", "unit": "min"}, {"measurement": "peripheral vasodilatory action", "setting": "[3]", "result": "great"}]}
{"smiles": "COCCCCNCC1COc2ccccc2C1=O", "note": "(stereo not drawn) [LJ 1053, 3-(4-Methoxy-n-butylaminomethyl)-4-chromanone hydrochloride]", "values": [{"measurement": "% variation of the hypertensive effects obtained with electrical stimulation", "setting": "[4]; [9]", "result": -11, "unit": "%"}, {"measurement": "% variation of the hypertensive effects obtained with adrenaline", "setting": "[4]; [9]", "result": -18, "unit": "%"}, {"measurement": "% variation of the hypertensive effects obtained with noradrenaline", "setting": "[4]; [9]", "result": -12, "unit": "%"}, {"measurement": "% variation of the hypertensive effects obtained with electrical stimulation", "setting": "[4]; [10]", "result": -55, "unit": "%"}, {"measurement": "% variation of the hypertensive effects obtained with adrenaline", "setting": "[4]; [10]", "result": -47, "unit": "%"}, {"measurement": "% variation of the hypertensive effects obtained with noradrenaline", "setting": "[4]; [10]", "result": -41, "unit": "%"}, {"measurement": "Diastolic AP, duration of action", "setting": "[1]; [11]", "result": 5, "unit": "min"}, {"measurement": "Diastolic AP, maximum per cent variation", "setting": "[1]; [11]", "result": -60, "unit": "%"}, {"measurement": "FF (mean flow rate of the femoral artery), maximum per cent variation", "setting": "[1]; [11]", "result": "+104%"}, {"measurement": "FF, duration of action", "setting": "[1]; [11]", "result": 3, "unit": "min"}, {"measurement": "Hb (heart beat), maximum per cent variation", "setting": "[1]; [11]", "result": "+23%"}, {"measurement": "Hb, duration of action", "setting": "[1]; [11]", "result": "> 30", "unit": "min"}, {"measurement": "LVP, duration of action", "setting": "[1]; [11]", "result": "> 10", "unit": "min"}, {"measurement": "Mean AP, duration of action", "setting": "[1]; [11]", "result": 5, "unit": "min"}, {"measurement": "Mean AP, maximum per cent variation", "setting": "[1]; [11]", "result": -45, "unit": "%"}, {"measurement": "Systolic AP, duration of action", "setting": "[1]; [11]", "result": 15, "unit": "min"}, {"measurement": "Systolic AP, maximum per cent variation", "setting": "[1]; [11]", "result": "+23%"}, {"measurement": "LVP (left ventricular pressure), maximum per cent variation", "setting": "[1]; [12]", "result": -17, "unit": "%"}, {"measurement": "dLVP/dt, maximum per cent variation", "setting": "[1]; [12]", "result": -12, "unit": "%"}, {"measurement": "dLVP/dt, duration of action, second phase (\"then\")", "setting": "[1]; [13]", "result": "> 10", "unit": "min"}, {"measurement": "dLVP/dt, maximum per cent variation, second phase (\"then\")", "setting": "[1]; [13]", "result": "+25%"}, {"measurement": "intravenous LD 50 in mice (comparison of three products)", "setting": "[5]", "result": "practically identical"}, {"measurement": "LD50 at 360 h", "setting": "[2]; intravenous administration", "result": 38, "unit": "mg/kg"}, {"measurement": "LD50 at 360 h", "setting": "[2]; oral administration", "result": 285, "unit": "mg/kg"}, {"measurement": "activation at 0.0001 mg", "setting": "[3]", "result": 23, "unit": "%"}, {"measurement": "activation at 0.001 mg", "setting": "[3]", "result": 92, "unit": "%"}, {"measurement": "activation at 0.01 mg", "setting": "[3]", "result": 133, "unit": "%"}, {"measurement": "activation at 0.1 mg", "setting": "[3]", "result": 183, "unit": "%"}, {"measurement": "duration of the effects / of the action", "setting": "[3]", "result": "≥ 30", "unit": "min"}, {"measurement": "peripheral vasodilatory action", "setting": "[3]; hydrochloride", "result": "great; also recorded: as active as isoxsuprine"}]}
